Laboratory results: PubChem BioAssay (NCI)
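Following 48 hours of exposure in 96-well plates, responses at five concentrations were used to interpolate endpoints linearly. Abbreviation: GI50, concentration required for 50% inhibition of growth. At the TGI there is no net growth.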

Columns and labels:
Experiment in all cases: inhibition of tumour cell growth, NCI panel, 48 h
[1] = system: LOX IMVI melanoma
[2] = system: MALME-3M melanoma
[3] = system: MOLT-4 leukemia
[4] = system: NCI-H23 lung
[5] = system: OVCAR-3 ovarian
[6] = system: OVCAR-4 ovarian
[7] = system: SK-MEL-5 melanoma
[8] = system: SN12C renal
[9] = system: SNB-19 CNS
[10] = system: UO-31 renal

Structure (SMILES)	TGI [1]	TGI [2]	TGI [3]	TGI [4]	TGI [5]	TGI [6]	TGI [7]	TGI [8]	TGI [9]	TGI [10]	GI50 [1]	GI50 [2]	GI50 [3]	GI50 [4]	GI50 [5]	GI50 [6]	GI50 [7]	GI50 [8]	GI50 [9]	GI50 [10]
CCOC(=O)/C(C#N)=C1\N[C@H](C(=O)OCC)CO1	> 100 µM	> 100 µM	> 100 µM	> 100 µM	> 100 µM	> 100 µM	> 100 µM	> 100 µM	> 100 µM	> 100 µM										
Cc1ncc([N+](=O)[O-])n1CCNC(=O)CCCn1cnc([N+](=O)[O-])n1	> 100 µM	> 100 µM	> 100 µM	> 100 µM	> 100 µM	> 100 µM	> 100 µM	> 55.9 µM	> 100 µM	> 100 µM										
CC(=O)OC1C2(CC3N4C(=O)C5(CO)SSC4(CC31O)C(=O)N5C)OC(C)C(C)(C)C2=O (centres undefined)	< 0.0121 µM		0.0622 µM	0.0932 µM	3.01 µM	0.0345 µM	0.0947 µM	0.05 µM	0.0666 µM	1.05 µM	< 0.01 µM	0.154 µM	< 0.0179 µM	< 0.0371 µM	1.32 µM	< 0.0114 µM	0.0389 µM	< 0.0114 µM	0.0184 µM	0.0952 µM
O=c1oc2ccc(Cl)cc2c(=O)n1-c1ccc(I)cc1F	1.69 µM	0.813 µM	1.81 µM	1.5 µM	13.3 µM	> 87.2 µM	0.279 µM	3.07 µM	> 100 µM	1.2 µM	0.248 µM	0.158 µM	0.384 µM	0.169 µM	0.177 µM	0.225 µM	0.095 µM	0.204 µM	0.206 µM	0.126 µM
COc1cc2cc(Oc3ccc(NC(=O)c4ccc(Cl)c(C(F)(F)F)c4)cc3)c(C)nc2cc1OC	> 100 µM	95.1 µM	70.5 µM	> 100 µM	54 µM	> 100 µM	27.1 µM	> 100 µM	> 100 µM	> 100 µM	7.59 µM	28.6 µM	9.7 µM	9.73 µM	7.94 µM	5.58 µM	10.6 µM	13.2 µM	24.6 µM	9.82 µM
Nc1nc(Nc2cccc(F)c2)nc2ccccc12	29 µM	37.5 µM	> 100 µM	> 100 µM	49.6 µM	> 100 µM	28.3 µM	> 100 µM	> 100 µM	61.2 µM	15.5 µM	18.6 µM	14.6 µM	24.1 µM	21.1 µM	22.9 µM	14.5 µM	32.8 µM	35.3 µM	19 µM
